Experimental data published in patent US20260158011A1 (Achieve Life Sciences, Inc., priority 2023, published 2026).
Several values for one entry are separate records, joined by “and”; a condition that tells them apart may be missing. Equal entries are not always repeated. Where two headings read alike, the source gives them in different places.

System: adult e-cigarette users
Conditions: for Relative Risk, vaping cessation Week 9 to 12: Row 1 (X = 0) over Row 2 (X = 1); for Common Relative Risk, Logit / Common Relative Risk, Mantel-Haenszel: X = 0 over X = 1, controlling for S; for Relative Risk, Logit / Relative Risk, Mantel-Haenszel: X = 0 over X = 1, no stratifier
Experimental: This Example describes a Phase 2 ORCA-V1 trial evaluated 160 adult e-cigarette users at 5 clinical trial locations in the United States. […] ORCA-V1 participants were randomized to receive 3 mg cytisinicline three times daily or placebo for 12 weeks in combination with standard cessation behavioral support. The dose and administration of cytisinicline in the ORCA-V1 study is identical to that used in the Phase 3 registrational trials for smoking cessation.
ORCA-V1 evaluated the efficacy and safety of 3 mg cytisinicline dosed three times daily for 12 weeks compared to placebo in 160 adult users of e-cigarettes or nicotine vapes. All participants received behavioral support for nicotine cessation.
Subjects were stratified on whether they have smoked >100 cigarettes in their lifetime (yes vs no) (FIG. 57). […] Missing data may be assumed as reported vaping.
Key inclusion criteria consisted of daily electronic cigarette usage (age ≥18 years): willing to bring e-cigarette or nicotine device used to clinical site and document specific product type, flavor, and nicotine level. Individuals were required to test positive for cotinine using the Alere iScreen® Oral Fluid Screening Device (Positive testing at 30 ng/mL cotinine level). Individuals required to be willing to set quit date within 7-14 days of after randomization and to participate in vaping cessation behavioral support provided throughout the study.
Key exclusion criteria included those currently smoking, or having smoked within 4 weeks prior to study randomization, and those with Expired Carbon Monoxide (CO) levels ≥10 ppm, indicating recent combustible tobacco use (i.e., no dual users). Those with clinically abnormal laboratory values were also excluded, as well as those with positive urinary screen for illicit drugs (THC not included in screen). Those with uncontrolled hypertension (BP 160/100 mmHg), abnormal ECG, or recent acute myocardial infarction, stroke, or heart failure admission in past 3 months were excluded. Psychiatric exclusions included (1) schizophrenia or bipolar disorder, (2) current moderate to severe depression symptoms, (3) high risk of suicide ideation. Pregnant or breast-feeding women or unwilling to use acceptable methods of birth control during the study were also excluded.
The first measurement consisted of biochemically verified continuous vaping abstinence during the last 4 weeks of treatment after 12 weeks of cytisinicline treatment vs placebo. Vaping abstinence during weeks 9-12 was verified with no reported vaping with weekly saliva cotinine levels <10 ng/mL.
A second measurement consisted of biochemically verified continuous vaping abstinence at any time during treatment, with vaping abstinence at Week 3-6 or Week 6-9 for of cytisinicline treatment vs placebo. 7-day point prevalence rates were compared for vaping abstinence (Week 2 to 12) (FIG. 62). An additional measurement included reduction in daily vaping as measured by cotinine, where cytisinicline treatment vs placebo for a reduction in nicotine vaping using weekly quantitative cotinine levels from Week 2 to Week 12. Safety was assessed by adverse effects and serious adverse effects, considering number, severity, and attribution to study drug.

[1] = 3 mg cytisinicline TID 12 weeks
[2] = All Randomized Set, Cytisinicline 12 Weeks N = 107, saliva cotinine <10 ng/mL
[3] = X = 1, Table of X by Y, all randomized, 107 subjects in row
[4] = X = 1, stratum S = 0 (>100 cigarettes = No), 30 subjects in row
[5] = X = 1, stratum S = 1 (>100 cigarettes = Yes), 77 subjects in row
[6] = share of all N = 107 of the arm
[7] = vs placebo, no stratifier, N=160, vaping cessation Week 9 to 12

O=c1cccc2n1C[C@@H]1CNC[C@H]2C1 [cytisine, (−)-Cytisine]
Odds ratio versus placebo, vaping cessation weeks 9-12, primary analysis with prospective stratification factor [1]: 2.6 and 2.64 | Odds ratio versus placebo, vaping cessation weeks 9-12, site as a stratification factor [1]: 3.03 | Odds ratio versus placebo, vaping cessation weeks 9-12, without any stratification factor [1]: 2.62 | Vaping cessation rate during weeks 9-12 (3 mg cytisinicline TID 12 weeks, saliva cotinine <10 ng/mL): 31.8% | Continuous Vaping Abstinence Week 9 to Week 16, n (%) (12 Weeks arm N = 107, All Randomized Set): 25 (23.4) n (%) | Vaping Cessation from Week 3 to Week 6, percent of subjects [2]: 24.3% | Vaping Cessation from Week 6 to Week 9, percent of subjects [2]: 30.8% | Vaping Cessation From Week 9 to Week 12, percent of subjects (All Randomized Set, Cytisinicline 12 wks N = 107, saliva cotinine <10 ng/mL): 31.8% | 7-Day Point Prevalence Abstinence, n (%) (Week 2, 12 Weeks arm N = 107, All Randomized Set): 15 (14.0) n (%) | 7-Day Point Prevalence Abstinence, Difference in Proportions (Week 2, vs placebo (N = 53)): 0.06 | 7-Day Point Prevalence Abstinence, Odds Ratio (Week 2, vs placebo (N = 53)): 2.00 | 7-Day Point Prevalence Abstinence, n (%) (Week 3, 12 Weeks arm N = 107, All Randomized Set): 36 (33.6) n (%) | 7-Day Point Prevalence Abstinence, Difference in Proportions (Week 3, vs placebo (N = 53)): 0.11 | 7-Day Point Prevalence Abstinence, Odds Ratio (Week 3, vs placebo (N = 53)): 1.73 | 7-Day Point Prevalence Abstinence, n (%) (Week 4, 12 Weeks arm N = 107, All Randomized Set): 53 (49.5) n (%) | 7-Day Point Prevalence Abstinence, Difference in Proportions (Week 4, vs placebo (N = 53)): 0.25 | 7-Day Point Prevalence Abstinence, Odds Ratio (Week 4, vs placebo (N = 53)): 3.02 | 7-Day Point Prevalence Abstinence, n (%) (Week 5, 12 Weeks arm N = 107, All Randomized Set): 45 (42.1) n (%) | 7-Day Point Prevalence Abstinence, Difference in Proportions (Week 5, vs placebo (N = 53)): 0.14 | 7-Day Point Prevalence Abstinence, Odds Ratio (Week 5, vs placebo (N = 53)): 1.84 | 7-Day Point Prevalence Abstinence, n (%) (Week 6, 12 Weeks arm N = 107, All Randomized Set): 44 (41.1) n (%) | 7-Day Point Prevalence Abstinence, Difference in Proportions (Week 6, vs placebo (N = 53)): 0.17 | 7-Day Point Prevalence Abstinence, Odds Ratio (Week 6, vs placebo (N = 53)): 2.15 | 7-Day Point Prevalence Abstinence, n (%) (Week 7, 12 Weeks arm N = 107, All Randomized Set): 52 (48.6) n (%) | 7-Day Point Prevalence Abstinence, Difference in Proportions (Week 7, vs placebo (N = 53)): 0.26 | 7-Day Point Prevalence Abstinence, Odds Ratio (Week 7, vs placebo (N = 53)): 3.23 | 7-Day Point Prevalence Abstinence, n (%) (Week 8, 12 Weeks arm N = 107, All Randomized Set): 46 (43.0) n (%) | 7-Day Point Prevalence Abstinence, Difference in Proportions (Week 8, vs placebo (N = 53)): 0.18 | 7-Day Point Prevalence Abstinence, Odds Ratio (Week 8, vs placebo (N = 53)): 2.32 | 7-Day Point Prevalence Abstinence, n (%) (Week 9, 12 Weeks arm N = 107, All Randomized Set): 45 (42.1) n (%) | 7-Day Point Prevalence Abstinence, Difference in Proportions (Week 9, vs placebo (N = 53)): 0.18 | 7-Day Point Prevalence Abstinence, Odds Ratio (Week 9, vs placebo (N = 53)): 2.23 | 7-Day Point Prevalence Abstinence, n (%) (Week 10, 12 Weeks arm N = 107, All Randomized Set): 44 (41.1) n (%) | 7-Day Point Prevalence Abstinence, Difference in Proportions (Week 10, vs placebo (N = 53)): 0.13 | 7-Day Point Prevalence Abstinence, Odds Ratio (Week 10, vs placebo (N = 53)): 1.77 | 7-Day Point Prevalence Abstinence, n (%) (Week 11, 12 Weeks arm N = 107, All Randomized Set): 40 (37.4) n (%) | 7-Day Point Prevalence Abstinence, Difference in Proportions (Week 11, vs placebo (N = 53)): 0.13 | 7-Day Point Prevalence Abstinence, Odds Ratio (Week 11, vs placebo (N = 53)): 1.84 | 7-Day Point Prevalence Abstinence, n (%) (Week 12, 12 Weeks arm N = 107, All Randomized Set): 41 (38.3) n (%) | 7-Day Point Prevalence Abstinence, Difference in Proportions (Week 12, vs placebo (N = 53)): 0.16 | 7-Day Point Prevalence Abstinence, Odds Ratio (Week 12, vs placebo (N = 53)): 2.12 | Vaping cessation Week 9 to 12, Row Pct Y = 0 (failure) (X = 1, Table of X by Y, all randomized): 68.22 Pct | Vaping cessation Week 9 to 12, Frequency Y = 0 (failure) [3]: 73 | Vaping cessation Week 9 to 12, Row Pct Y = 1 (success) [3]: 31.78 Pct | Vaping cessation Week 9 to 12, Row Pct Y = 0 (failure) (X = 1, stratum S = 0 (>100 cigarettes = No)): 63.33 Pct | Vaping cessation Week 9 to 12, Frequency Y = 0 (failure) [4]: 19 | Vaping cessation Week 9 to 12, Row Pct Y = 1 (success) [4]: 36.67 Pct | Vaping cessation Week 9 to 12, Row Pct Y = 0 (failure) (X = 1, stratum S = 1 (>100 cigarettes = Yes)): 70.13 Pct | Vaping cessation Week 9 to 12, Frequency Y = 0 (failure) [5]: 54 | Vaping cessation Week 9 to 12, Row Pct Y = 1 (success) [5]: 29.87 Pct | Column 1 Risk Estimates, Risk, Row 2 (Y = 0 (failure of vaping cessation Week 9 to 12), X = 1, N=160): 0.6822 | Relative Risk, vaping cessation Week 9 to 12 (Y = 0 (failure), stratum S = 0, N=45): 1.2632 | Relative Risk, vaping cessation Week 9 to 12 (Y = 0 (failure), stratum S = 1, N=115): 1.2383 | Common Relative Risk, Logit (Y = 0 (failure), N=160): 1.2435 | Common Relative Risk, Mantel-Haenszel (Y = 0 (failure), N=160): 1.2448 | Relative Risk, Logit (Y = 0 (failure), N=160): 1.2445 | Relative Risk, Mantel-Haenszel (Y = 0 (failure), N=160): 1.2445 | Relative Risk, vaping cessation Week 9 to 12 (Y = 1 (success), stratum S = 0, N=45): 0.5455 | Relative Risk, vaping cessation Week 9 to 12 (Y = 1 (success), stratum S = 1, N=115): 0.4405 | Column 2 Risk Difference (Row 1-Row 2) (Y = 1 (success), X = 0 minus X = 1, N=160): −0.1668 | Common Relative Risk, Logit (Y = 1 (success), N=160): 0.4784 | Common Relative Risk, Mantel-Haenszel (Y = 1 (success), N=160): 0.4747 | Relative Risk, Logit (Y = 1 (success), N=160): 0.4750 | Relative Risk, Mantel-Haenszel (Y = 1 (success), N=160): 0.4750 | Column 2 Risk Estimates, Risk, Row 2 (Y = 1 (vaping cessation Week 9 to 12), X = 1, N=160): 0.3178 | Difference in Proportions, Vaping Cessation from Week 3 to Week 6 (placebo group as reference): 0.09 | Difference in Proportions, Vaping Cessation from Week 6 to Week 9 (placebo group as reference): 0.14 | Odds Ratio, Vaping Cessation from Week 3 to Week 6 (placebo group as reference): 1.81 | Odds Ratio, Vaping Cessation from Week 6 to Week 9 (placebo group as reference): 2.18 | Marginal Difference in Proportions, Vaping Cessation from Week 9 to Week 12 (placebo group as reference, All Randomized Set): 0.17 | Vaping Cessation From Week 9 to Week 12, value in parentheses, >100 Cigarettes smoke in Lifetime = No [6]: 10.3 | Vaping Cessation From Week 9 to Week 12, value in parentheses, >100 Cigarettes smoke in Lifetime = Yes [6]: 21.5 | Vaping Cessation From Week 9 to Week 12, number of subjects, >100 Cigarettes smoke in Lifetime = No (stratum S = 0 (N=45; 30 on cytisinicline), Frequency X = 1, Y = 1 in FREQ table): 11 | Vaping Cessation From Week 9 to Week 12, number of subjects, >100 Cigarettes smoke in Lifetime = Yes (stratum S = 1 (N=115; 77 on cytisinicline), Frequency X = 1, Y = 1 in FREQ table): 23 | Continuous Vaping Abstinence Week 9 to Week 16, Difference in Proportions (vs placebo (N = 53)): 0.10 | Continuous Vaping Abstinence Week 9 to Week 16, Odds Ratio (vs placebo (N = 53)): 2.00 | Common Odds Ratio (Mantel-Haenszel), vaping cessation Week 9 to 12 (vs placebo, controlling for S (>100 Cigarettes Smoked in Lifetime no, yes), N=160, listed as Cytisinicline): 2.6375 and 2.64 | Common Odds Ratio (Logit), vaping cessation Week 9 to 12 (vs placebo, controlling for S, N=160): 2.6304 | Common Odds Ratio (Logit), summary statistics for X by Y [7]: 2.6199 | Common Odds Ratio (Mantel-Haenszel), summary statistics for X by Y [7]: 2.6199 | Odds Ratio, vaping cessation Week 9 to 12 (vs placebo, stratum S = 0 (>100 cigarettes = No), N=45): 2.3158 | Odds Ratio, vaping cessation Week 9 to 12 (vs placebo, stratum S = 1 (>100 cigarettes = Yes), N=115): 2.8111
